# Measured values: ChEMBL document CHEMBL1159149, “Phenalene metabolites from eichhornia crassipes” (1992)
# System: Porphyridium aerugineum
# Assay: Compound at a conc of 2 umol was tested for antialgal activity against Porphyridium aerugineum in filter paper-petri dish bioassay
# Assay type: functional
row,SMILES,Inhibition zone [mm]
1,COc1ccc(-c2cc(OC)c3c4c(c(OC)ccc24)CCC3OC)cc1 (stereo not drawn),25
2,COc1ccc2c(-c3ccccc3)cc(OC)c3c2c1CCC3OC (stereo not drawn),25
3,COc1cc2ccc(-c3ccccc3)c3c2c(c1OC)CCC3OC (stereo not drawn),25
